Patent US8642660B2, “Method for altering the lifespan of eukaryotic organisms” (The University of Rochester, priority 2007, dated 2014)

Columns and labels:
[1] = system: yeast cells; assay: "775" DeaD assay, single-concentration screen for countering nicotinamide lifespan shortening; assay type: cell-based, Saccharomyces cerevisiae; design: key: compounds that exhibited >26% inhibition are defined as active; Compounds that exhibited <=26% inhibition are defined as inactive; conditions: compounds 10 uM, 1.5 mM nicotinamide, 48 hours, OD615
From the text: Having established the suitability of the DeaD assay as a proxy for microdissection, the DeaD assay was used to screen a 132,796 compound library for the ability of compounds in the library to counter the lifespan-shortening effect of nicotinamide.
Specifically, as described in the AID 775 assay results (synonymously, the “775” assay results) on the “PubChem” website at pubchem.ncbi.nlm.nih.gov/assay/assay.cgi?aid=775, the contents of which are herein incorporated in their entirety by reference, the percent inhibition of nicotinamide lifespan shortening, i.e. percent reversal of nicotinamide effect on lifespan, was calculated using the optical density in control wells with cells treated with 1.5 mM nicotinamide as full lifespan shortening effect of nicotinamide (0% inhibition of nicotinamide), and wells with cells grown in medium without nicotinamide as an indicator of 100% inhibition. The appropriate compounds in the PubChem compound library (about 132,000 compounds selected from the total library of about 10 million compounds) were screened at 10 uM in the presence of 1.5 mM nicotinamide. For further details, see, e.g., the following references: Jarolim, S., Millen, J., Heeren, G., Laun, P., Goldfarb, D. S. and M. Breitenbach. (2004). A novel assay for replicative lifespan in Saccharomyces cerevisiae. FEMS Yeast Res. 5, 169-177; Bitterman, K. J., Anderson, R. M., Cohen, H. Y., Latorre-Esteves, M., and D. A. Sinclair. (2002). Inhibition of silencing and accelerated aging by nicotinamide, a putative negative regulator of yeast Sir2 and human SIRT1. J. Biol. Chem. 277, 45099-45107; Tsuchiya, M., Dang, N., Kerr, E. O., Hu, D., Steffen, K. K., Oakes, J. A., Kennedy, B. K. and M. Kaeberlein (2006) Sirtuin-independent effects of nicotinamide on lifespan extension from calorie restriction in yeast. Aging Cell. 5, 505-514.
Assays were conducted as follow. Cells were streaked out on a YPGal agar plate and grown for 48 hours at 30° C. Four colonies were selected, 50 mL of YPGal medium in a flask was inoculated and grown at 30° C. with shaking O/N. OD600 was measured. The OD should be <0.7 for the cells to be in log phase. The cells were centrifuged, washed once and resuspended in CSMM-D restrictive growth medium. OD600 was measured again. The culture was diluted to an OD600 of 0.002 in CSMM-D restrictive medium. The culture was pre-incubated in a flask with shaking at 30° C. for 4 hours. At the end of the pre-incubation, OD600 was measured for reference. Nicotinamide (negative control), medium alone (positive control) and compounds in the presence of nicotinamide were plated with DMSO at 10× concentration (final concentrations: nicotinamide 1.5 mM, compounds 10 uM, DMSO 0.25%) in 384-well plates: 5 uL/well. The yeast was added to the plates: 45 uL/well. Plates were incubated at 30 C in a humidified chamber. After 48 hours incubation, plates were shaken for 30 seconds and OD615 was read in an EnVision (PerkinElmer) multilabel plate reader. For these assays, YPGal medium was prepared as 10 grams yeast extract, 20 grams peptone, 900 mL water, autoclave at 121° C. for 15 minutes, add 100 mL sterile 20% (w/v) galactose. CSMM-D (Complete Synthetic Minimal Medium-Dextrose) (restrictive) medium was prepared as 6.7 grams yeast nitrogen base without amino acids, 2.0 grams Drop-out mix complete (DOC) (USBiological Cat. no. D9515), 100 mL 20% (w/v) dextrose, water to 1.0 L, then filter sterilize.
An activity threshold of >26% was calculated as greater than three standard deviations from the median compound inhibition. […] Because of the inherent error in all high-throughput screens including the fallacy of over-interpreting single dose data, a tiered scoring system was adopted for this Example, in which compounds were scored on a scale of 0-40 based on activity, with a scaled activity threshold of 11. Using this tiered scoring system, the compounds were ranked, with 906 of these compounds defined as “active” using this tiered scoring system. […]

[2] = system: DeaD strain BB579; assay: "809" DeaD assay, dose-response screen (EC50) in presence of nicotinamide; assay type: cell-based, Saccharomyces cerevisiae; design: key: An activity threshold of EC50<=10 uM was set and compounds that met this criterion are defined as active; Compounds that exhibited an EC50>10 uM are defined as inactive; conditions: compounds 0.078-10 uM, 1.5 mM nicotinamide, 48 hours
Description: As already discussed, Example 2 provides data using the “775” DeaD assay to determine compounds that counter the lifespan-reducing effects of 1.5 mM nicotinamide, with this Example identifying about 900 “active” compounds. Example 2 used only a single compound concentration of 10 uM; in the current Example, the top 500 of these “active” compounds were again screened using the DeaD assay, but now at 8 concentrations ranging from 0.078 to 10 uM, again in the presence of 1.5 mM nicotinamide, resulting in the data provided in Table 1. This more extensive data allowed for the determination of the half maximal effective concentration (EC50). See the “AID 809” assay (the “809” assay) results on the PubChem website at pubchem.ncbi.nlm.nih.gov/assay/assay.cgi?aid=809.
Thus, in this Example compounds were screened in an 8-point 2-fold dilution series ranging from 0.078 to 10 uM in the presence of 1.5 mM nicotinamide. The percent activation of lifespan, i.e. percent reversal of nicotinamide effect on lifespan, was calculated using the optical density in control wells with cells treated with 1.5 mM nicotinamide as full lifespan shortening effect of nicotinamide (0% activation), and wells with cells grown in medium without nicotinamide as an indicator of 100% activation. From the % activation values of the different compound concentrations, the half maximal effective concentration (EC50) was calculated using IDBS ActivityBase software and XLfit equation 205 for a four parameter logistic fit; the maximum and minimum values were fixed at 100% and 0%.
Assays were conducted as follow. Cells (DeaD strain BB579) were streaked out on a YPGal agar plate and grown for 48 hours at 30° C. Four colonies were selected, 50 mL of YPGal medium in a flask was inoculated and grown at 30 C with shaking O/N. OD600 was measured. The OD should be <0.7 for the cells to be in log phase. […] OD600 was measured again. […] At the end of the pre-incubation, OD600 was measured for reference. […] After 48 hours incubation, plates were shaken for 30 seconds and OD615 was read in an EnVision (PerkinElmer) multilabel plate reader. […]

[3] = system: yeast cells; assay: Full DeaD assay lifespan timecourse (FIG. 3); assay type: cell-based, Saccharomyces cerevisiae; conditions: 2.5, 5.0, 10 uM, nonpermissive conditions
Description: FIG. 3 provides a plot showing DeaD assays for compound SID 855620 (nalidixic acid) in the presence and absence of nicotinamide. The nalidixic acid was incubated with growing cells under nonpermissive conditions at concentrations of 2.5, 5.0, and 10 uM (micromolar) in the presence and absence of 1.5 mM nicotinamide. Control experiments for growth in the presence and absence of nicotinamide without the drug are included. The last three entries showing the line labeling are all results obtained with 1.5 mM nicotinamide and, respectively, 2.5, 5 or 10 uM nalidixic acid. The data lines shown in this figure correspond to (topmost to bottommost as they appear at the extreme right side of the data lines): 2.5, 10, or 5 uM nalidixic acid (no nicotinamide); blank cells (labeled “no NIC”); 5 or 10 uM nalidixic acid plus 1.5 mM nicotinamide (in both cases); 10 uM nalidixic acid (no nicotinamide); and, blank cells with 1.5 mM nicotinamide (labeled “1.5 mM NIC”).
In order to validate the results of the “809” experiment of Example 3, timecourses for the effect of the top 70 compounds identified in Example 3 may be performed using the DeaD assay for, e.g., a 140 hour interval for each of these compounds. […]

[4] = system: yeast cells; assay: Standard microdissection replicative lifespan assay (FIG. 4); assay type: cell-based, Saccharomyces cerevisiae
Description: FIG. 4 provides standard microdissection lifespans for nicotinamide in the presence of nalidixic acid and 5 mM nicotinamide. Three experiments that included three concentrations of nalidixic acid all increased mean lifespans (shown in parentheses) and maximum lifespans. In this Figure, “#864” refers to nalidixic acid, e.g., the second entry in the legend refers to 54 uM nalidixic acid, the third entry refers to 107 uM nalidixic acid, etc. The number presented in parentheses in the figure legend refers to the mean lifespan of the population in each experiment presented in this Figure, e.g., the control population (5 mM nicotinamide only) has a mean lifespan of 14.2 generations, etc.
In order to verify the data of Example 4 for nalidixic acid, microdissection experiments were performed using this compound to counter the effect of nicotinamide, with the results of these experiments shown in FIG. 4.

[5] = system: C. elegans; conditions: Pnc1 and SIR2-ortholog dependent; Van der Horst et al. 2007; cited from earlier work
[6] = system: DeaD strain; assay: DeaD assay validation with nicotinamide (FIG. 2); assay type: cell-based, Saccharomyces cerevisiae; conditions: 0.5, 0.75, 1 mM NIC
Description: Panel A: Under growth in glucose (nonpermissive conditions) DeaD lifespans are reduced in a dose-dependent fashion by increasing concentrations of nicotinamide. […] The lines shown in panel A correspond to (top to bottom) 0, 0.5, 0.75, and 1 mM NIC. The 3 lines visible in panel B correspond to (topmost to bottommost), 0.5, 0.75, or 1 mM NIC; the 0 mM NIC line is not visible.
The DeaD assay was developed as a high throughput proxy for conventional microdissection assays used to determine yeast replicative ageing. In order to verify the ability of this assay to produce results corresponding to conventional microdissection assay results, the data of FIG. 1 were obtained using either the DeaD assay (panel A) or via microdissection (panel B).

[7] = 5 mM nicotinamide, three concentrations of nalidixic acid

Cc1cc(C2C(=O)C(C(=O)c3ccc(Cl)cc3)C(=O)CC2(C)C)on1 (stereo not shown) [SID 842694]
activity in the 775 assay (percent inhibition of nicotinamide lifespan shortening) [1]: inactive

CC1(C)CC(=O)C(C(=O)CCCCC(=O)C2C(=O)CC(C)(C)CC2=O)C(=O)C1 [SID 4245034]
activity in the 775 assay (percent inhibition of nicotinamide lifespan shortening) [1]: inactive

CCCC(=O)C1C(=O)CC(C)(C)C(c2cc(C)no2)C1=O (stereo not shown) [SID 7972147]
activity in the 775 assay (percent inhibition of nicotinamide lifespan shortening) [1]: active

COC(=O)CCCCC(=O)C1C(=O)CC(C)(C)C(C(=O)OC)C1=O (stereo not shown) [SID 7972920]
activity in the 775 assay (percent inhibition of nicotinamide lifespan shortening) [1]: inactive

CCOC(=O)C1C(=O)C(C(C)=O)C(=O)CC1CC(C)SCC (stereo not shown) [SID 14724551]
activity in the 809 assay (EC50) [2]: active
activity in the 775 assay (percent inhibition of nicotinamide lifespan shortening) [1]: active

CCCC(=O)C1C(=O)CC(CC(C)SCC)CC1=O (stereo not shown) [SID 14732512]
activity in the 809 assay (EC50) [2]: active
activity in the 775 assay (percent inhibition of nicotinamide lifespan shortening) [1]: active

CCOc1ccc(CC(=O)C2C(=O)CC(C)(C)CC2=O)cc1OCC [SID 14732962]
activity in the 775 assay (percent inhibition of nicotinamide lifespan shortening) [1]: inactive

CC1(C)CC(=O)C(C(=O)Cc2ccccc2[N+](=O)[O-])C(=O)C1 [SID 17511642]
activity in the 809 assay (EC50) [2]: active
activity in the 775 assay (percent inhibition of nicotinamide lifespan shortening) [1]: active

CCn1cc(C(=O)O)c(=O)c2ccc(C)nc21 [nalidixic acid]
DeaD lifespan ([3]; in the absence of nicotinamide): extends DeaD lifespan
DeaD lifespan ([3]; in the presence of 1.5 mM nicotinamide): extends DeaD lifespan
maximum lifespan [4, 7]: increased
mean lifespan [4, 7]: increased

NC(=O)c1cccnc1 [nicotinamide]
C. elegans lifespan [5]: reduce C. elegans lifespan
mean lifespan ([4]; control population, 5 mM nicotinamide only): 14.2 generations
growth under permissive conditions ([6]; growth in galactose (permissive conditions)): without altering growth
DeaD lifespan ([6]; growth in glucose (nonpermissive conditions)): reduces the lifespan of the DeaD strain in a dose-dependent fashion
